In ChEMBL document CHEMBL1201862, “PubChem BioAssay data set” (2004):
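All cell lines were grown in 96-well plates and treated with compound for 48 hours. GI50: concentration for 50% inhibition of growth.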 Activity calls are given as the source filed them. Rule as the data show it: active = GI50 up to about 1.1 µM and inactive = higher.

Columns and labels:
Test in all cases: NCI tumour cell line growth inhibition, 48 h
[1] = tested on: DU-145
[2] = tested on: SNB-75
[3] = tested on: COLO 205
[4] = tested on: OVCAR-3
[5] = tested on: K562
[6] = tested on: RPMI-8226
[7] = tested on: NCI-H226
[8] = tested on: NCI-H460
[9] = tested on: MCF7
[10] = tested on: SK-OV-3
[11] = tested on: UACC-257
[12] = tested on: IGROV-1
[13] = tested on: SNB-19
[14] = tested on: OVCAR-4
[15] = tested on: SK-MEL-28
[16] = tested on: BT-549
[17] = tested on: KM12
[18] = tested on: UACC-62
[19] = tested on: HCT-15
[20] = tested on: ACHN
[21] = tested on: HL-60
[22] = tested on: LOX IMVI
[23] = tested on: SF-295
[24] = tested on: PC-3
[25] = tested on: NCI-H522
[26] = tested on: SK-MEL-5
[27] = tested on: A498
[28] = tested on: HOP-62
[29] = tested on: EKVX
[30] = tested on: MOLT-4
[31] = tested on: T47D
[32] = tested on: CCRF-CEM
[33] = tested on: SF-539
[34] = tested on: HOP-92
[35] = tested on: Hs-578T
[36] = tested on: MDA-N
[37] = tested on: HT-29
[38] = tested on: TK-10
[39] = tested on: SK-MEL-2
[40] = tested on: OVCAR-8
[41] = tested on: OVCAR-5
[42] = tested on: A549
[43] = tested on: NCI-H23
[44] = tested on: M14
[45] = tested on: HCT-116
[46] = tested on: UO-31
[47] = tested on: HCC 2998
[48] = tested on: SW-620
[49] = tested on: SF-268
[50] = tested on: Malme-3M
[51] = tested on: MDA-MB-435
[52] = tested on: U-251
[53] = tested on: CAKI-1
[54] = tested on: NCI/ADR-RES
[55] = tested on: SN12C
[56] = tested on: SR
[57] = tested on: 786-0
[58] = tested on: RXF 393
[59] = tested on: MDA-MB-231

For `COc1cc(OC2OC(CO)C(O)C(O)C2O)c2c(O)c3c(=O)cc(C)oc3cc2c1` (stereo unspecified), the GI50 [1] was > 100 µM (inactive), the GI50 [2] was > 100 µM (inactive) and the GI50 [3] was > 100 µM (inactive). The GI50 [4] was > 100 µM (inactive), the GI50 [5] was > 100 µM (inactive) and the GI50 [6] was > 100 µM (inactive). For the same molecule, the GI50 [7] was 9.55 µM (inactive), the GI50 [8] was > 100 µM (inactive) and the GI50 [9] was > 100 µM (inactive). The GI50 [10] was > 100 µM (inactive), the GI50 [11] was > 100 µM (inactive) and the GI50 [12] was > 100 µM (inactive). The GI50 [13] was > 100 µM (inactive), the GI50 [14] was > 100 µM (inactive) and the GI50 [15] was > 100 µM (inactive). For the same molecule, the GI50 [16] was 29.5 µM (inactive), the GI50 [17] was > 100 µM (inactive) and the GI50 [18] was > 100 µM (inactive). The GI50 [19] was greater than 100 µM, the GI50 [20] was > 100 µM (inactive) and the GI50 [21] was > 100 µM (inactive). For the same molecule, the GI50 [22] was > 100 µM (inactive), the GI50 [23] was 65.5 µM (inactive) and the GI50 [24] was > 100 µM (inactive). The GI50 [25] was > 100 µM (inactive), the GI50 [26] was > 100 µM (inactive) and the GI50 [27] was > 100 µM (inactive). For the same molecule, the GI50 [28] was > 100 µM (inactive), the GI50 [29] was > 100 µM (inactive) and the GI50 [30] was > 100 µM (inactive). For the same molecule, the GI50 [31] was > 100 µM (inactive), the GI50 [32] was > 100 µM (inactive) and the GI50 [33] was 94 µM (inactive). The GI50 [34] was > 10 µM (inactive), the GI50 [35] was > 100 µM (inactive) and the GI50 [36] was > 10 µM (inactive). For the same molecule, the GI50 [37] was > 100 µM (inactive), the GI50 [38] was > 100 µM (inactive) and the GI50 [39] was > 100 µM (inactive). For the same molecule, the GI50 [40] was > 100 µM (inactive), the GI50 [41] was > 100 µM (inactive) and the GI50 [42] was > 100 µM (inactive). The GI50 [43] was > 100 µM (inactive), the GI50 [44] was > 100 µM (inactive) and the GI50 [45] was > 100 µM (inactive). For the same molecule, the GI50 [46] was > 100 µM (inactive), the GI50 [47] was > 100 µM (inactive) and the GI50 [48] was > 100 µM (inactive). The GI50 [49] was 64.3 µM (inactive), the GI50 [50] was 67.1 µM (inactive) and the GI50 [51] was > 100 µM (inactive). For the same molecule, the GI50 [52] was > 100 µM (inactive) and the GI50 [53] was > 100 µM (inactive).

`CON(C)C(=O)C(Cc1ccccc1)NC(=O)OC(C)(C)C` (stereo unspecified) was tested, and the GI50 [1] was > 100 µM (inactive), the GI50 [2] was > 100 µM (inactive) and the GI50 [3] was > 100 µM (inactive). The GI50 [4] was > 100 µM (inactive), the GI50 [5] was > 100 µM (inactive) and the GI50 [6] was > 100 µM (inactive). The GI50 [7] was > 100 µM (inactive), the GI50 [8] was > 100 µM (inactive) and the GI50 [9] was > 100 µM (inactive). For the same molecule, the GI50 [10] was > 100 µM (inactive), the GI50 [11] was > 100 µM (inactive) and the GI50 [12] was > 100 µM (inactive). The GI50 [13] was > 100 µM (inactive), the GI50 [15] was > 100 µM (inactive) and the GI50 [16] was > 100 µM (inactive). The GI50 [17] was > 100 µM (inactive), the GI50 [18] was > 100 µM (inactive) and the GI50 [54] was > 100 µM (inactive). The GI50 [55] was > 100 µM (inactive), the GI50 [19] was greater than 100 µM and the GI50 [20] was > 100 µM (inactive). For the same molecule, the GI50 [21] was > 100 µM (inactive), the GI50 [23] was > 100 µM (inactive) and the GI50 [24] was > 100 µM (inactive). The GI50 [26] was > 100 µM (inactive), the GI50 [27] was > 100 µM (inactive) and the GI50 [28] was > 100 µM (inactive). The GI50 [29] was > 100 µM (inactive), the GI50 [30] was > 100 µM (inactive) and the GI50 [56] was > 100 µM (inactive). For the same molecule, the GI50 [31] was > 100 µM (inactive), the GI50 [32] was > 100 µM (inactive) and the GI50 [33] was > 100 µM (inactive). For the same molecule, the GI50 [34] was > 100 µM (inactive), the GI50 [35] was > 100 µM (inactive) and the GI50 [36] was > 100 µM (inactive). For the same molecule, the GI50 [37] was > 100 µM (inactive), the GI50 [57] was > 100 µM (inactive) and the GI50 [38] was > 100 µM (inactive). For the same molecule, the GI50 [40] was > 100 µM (inactive), the GI50 [41] was > 100 µM (inactive) and the GI50 [42] was > 100 µM (inactive). The GI50 [43] was > 100 µM (inactive), the GI50 [44] was > 100 µM (inactive) and the GI50 [45] was > 100 µM (inactive). The GI50 [46] was > 100 µM (inactive), the GI50 [58] was > 100 µM (inactive) and the GI50 [47] was > 100 µM (inactive). The GI50 [48] was > 100 µM (inactive), the GI50 [49] was > 100 µM (inactive) and the GI50 [50] was > 100 µM (inactive). For the same molecule, the GI50 [51] was > 100 µM (inactive) and the GI50 [52] was > 100 µM (inactive).

`C=C(C)C1CCC(C(=O)O)CC1` (stereo unspecified) was tested, and the GI50 [1] was > 100 µM (inactive), the GI50 [2] was > 100 µM (inactive) and the GI50 [3] was > 100 µM (inactive). The GI50 [4] was > 100 µM (inactive), the GI50 [5] was > 100 µM (inactive) and the GI50 [6] was > 100 µM (inactive). The GI50 [7] was > 100 µM (inactive), the GI50 [8] was > 100 µM (inactive) and the GI50 [9] was > 100 µM (inactive). The GI50 [10] was > 100 µM (inactive), the GI50 [11] was > 100 µM (inactive) and the GI50 [12] was > 100 µM (inactive). The GI50 [13] was > 100 µM (inactive), the GI50 [15] was > 100 µM (inactive) and the GI50 [16] was > 100 µM (inactive). The GI50 [17] was > 100 µM (inactive), the GI50 [18] was > 100 µM (inactive) and the GI50 [55] was > 100 µM (inactive). The GI50 [19] was greater than 100 µM, the GI50 [59] was > 100 µM (inactive) and the GI50 [20] was > 100 µM (inactive). For the same molecule, the GI50 [22] was > 100 µM (inactive), the GI50 [23] was > 100 µM (inactive) and the GI50 [24] was > 100 µM (inactive). The GI50 [25] was > 100 µM (inactive), the GI50 [26] was > 100 µM (inactive) and the GI50 [27] was > 100 µM (inactive). For the same molecule, the GI50 [28] was > 100 µM (inactive), the GI50 [29] was > 100 µM (inactive) and the GI50 [30] was > 100 µM (inactive). For the same molecule, the GI50 [31] was > 100 µM (inactive), the GI50 [32] was > 100 µM (inactive) and the GI50 [33] was > 100 µM (inactive). For the same molecule, the GI50 [34] was > 100 µM (inactive), the GI50 [35] was > 100 µM (inactive) and the GI50 [36] was > 100 µM (inactive). For the same molecule, the GI50 [37] was > 100 µM (inactive), the GI50 [57] was > 100 µM (inactive) and the GI50 [38] was > 100 µM (inactive). For the same molecule, the GI50 [39] was > 100 µM (inactive), the GI50 [40] was > 100 µM (inactive) and the GI50 [41] was > 100 µM (inactive). For the same molecule, the GI50 [42] was > 100 µM (inactive), the GI50 [43] was > 100 µM (inactive) and the GI50 [44] was > 100 µM (inactive). The GI50 [45] was > 100 µM (inactive), the GI50 [46] was > 100 µM (inactive) and the GI50 [58] was > 100 µM (inactive). The GI50 [47] was > 100 µM (inactive), the GI50 [48] was > 100 µM (inactive) and the GI50 [49] was > 100 µM (inactive). The GI50 [50] was > 100 µM (inactive), the GI50 [51] was > 100 µM (inactive) and the GI50 [52] was > 100 µM (inactive). The GI50 [53] was > 100 µM (inactive).
